# Source: article PMC11111408, “Concurrent inhibition of oncogenic and wild-type RAS-GTP for cancer therapy” (Nature, 2024)
# Values joined by “and” are separate entries in the source; they are usually repeats but may differ in a detail not shown here. Identical values can stand only once.
# Legend:
# KRAS–RALGDS [1] = target: T1, KRAS–RALGDS (Homo sapiens, UniProt P01116, G12V); assay: Cellular nano-BRET, full length RALGDS binding to KRAS G12C, G12D, G12V; assay type: cell-based; details: KRAS G12V, in the presence of CYPA, single replicates
# T1 construct: expressed in transfected cells; host or cells: U2OS
# KRAS–RALGDS [2] = target: T2, KRAS–RALGDS (Homo sapiens, UniProt P01116, G12C); assay: as above; assay type: cell-based; details: KRAS G12C, in the presence of CYPA, single replicates
# T2 construct: expressed in transfected cells; host or cells: U2OS
# KRAS^G12R = KRAS^G12R (Homo sapiens, UniProt P01116+P62937, G12R); assay: Biochemical RAS–RAF (BRAF RBD) disruption, TR-FRET; set-up: made in house; host or cells: BL21(DE3) Escherichia coli; details: (95% CI)
# From the text: (§1) Time-resolved fluorescence resonance energy transfer (TR-FRET) was used as previously described to assess disruption of the interactions between wild-type RAS or the mutant oncogenic RAS proteins and the RAS-binding domain of BRAF, and to assess the induction of interactions between the RAS proteins and CYPA[12].
# KRAS WT = KRAS WT (Homo sapiens, UniProt P01116+P62937); assay: Biochemical RAS–RAF (BRAF RBD) disruption, TR-FRET; set-up: made in house; host or cells: BL21(DE3) Escherichia coli
# From the text: as §1
# KRAS^G12D = KRAS^G12D (Homo sapiens, UniProt P01116+P62937, G12D); assay: Biochemical RAS–RAF (BRAF RBD) disruption, TR-FRET; set-up: made in house; host or cells: BL21(DE3) Escherichia coli; details: (95% CI)
# From the text: as §1
# NRAS^Q61L = NRAS^Q61L (Homo sapiens, UniProt P01111+P62937, Q61L); assay: RAS binding affinity of compound-bound CYPA (Kd2), SPR; details: steady state SPR, (95% CI)
# Capan-1 cells = assay: Cell proliferation (CTG); assay type: cell-based; details: Homo sapiens; Capan-1, CTG; (95% CI)
# Protocol: (§2) Alternatively, cells were seeded in round-bottom ultra-low attachment 96-well plates, centrifuged at 1,000 rpm for 10 min to pellet the cells, and incubated overnight or up to 72 h to allow for 3D spheroid formation. […] Cell viability was determined by CellTiter-Glo 2.0 reagent (2D CTG) (Promega, G9243) or 3D CellTiter-Glo reagent (3D CTG) (Promega, G9683) according to the manufacturer’s protocols. Luminescence was detected using a SpectraMax M5 Plate Reader (Molecular Devices) of Perkin Elmer Enspire. Luminescence signal was normalized to vehicle-treated wells (normalized signal (%) = (luminescence (treated)/mean luminescence (vehicle)) × 100%). […] Data were plotted as log [inhibitor (M)], and a four-parameter sigmoidal concentration response model was fitted to the data to calculate EC50. […] Pa16C MEK1 mutant cells were evaluated by live-cell counting using Calcein AM and a SpectraMax i3X multi-mode detection platform (Molecular Devices). Growth percentages were calculated by normalizing the treated cell counts to their respective untreated cell counts.
# KRAS–PI3Kα [3] = target: T3, KRAS–PI3Kα (Homo sapiens, UniProt P01116, G12V); assay: Cellular nano-BRET, full length PI3Kα binding to KRAS G12C, G12D, G12V; assay type: cell-based; details: KRAS G12V, in the presence of CYPA, single replicates;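 further: U2OS cells expressing KRAS4B mutants carrying N-terminal nanoluciferase or HaloTag fusions, with nano-BRET signal measured after inhibitor exposure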
# T3 construct: expressed in transfected cells; host or cells: U2OS
# KRAS–PI3Kα [4] = target: T4, KRAS–PI3Kα (Homo sapiens, UniProt P01116, G12C); assay: as above; assay type: cell-based; details: KRAS G12C, in the presence of CYPA, single replicates
# T4 construct: expressed in transfected cells; host or cells: U2OS
# KRAS–PI3Kα [5] = target: T5, KRAS–PI3Kα (Homo sapiens, UniProt P01116, G12D); assay: as above; assay type: cell-based; details: KRAS G12D, in the presence of CYPA, single replicates
# T5 construct: expressed in transfected cells; host or cells: U2OS
# A375 cells = assay: Cell proliferation (CTG); assay type: cell-based, human
# Protocol: as §2
# [6] = Cell-to-medium concentration ratio of RMC-7977 (LC–MS/MS bioanalysis of cells and supernatant); assay type: in vitro ADME, human
# Protocol: Cells were pelleted by centrifugation, and 1 ml of supernatant was reserved and frozen at −80 °C. Cell pellets were washed twice in cold PBS, and pre-weighed tubes containing the cell pellets were weighed prior to snap freezing in a slurry of dry ice and ethanol. […] Cell pellet samples were resuspended in cell medium (diluted as needed), then treated as supernatant. An aliquot of supernatant or resuspended cells (50 µL) was quenched with a 3× volume of acetonitrile containing the internal standard terfenadine (2.5 ng ml^−1). […] The lower limit of quantification was 0.25 ng ml^−1, and the calibration range was 0.25 to 400 ng ml^−1.
# RAS = assay: Binding of the CYPA–RMC-7977 binary complex to RAS (Kd2), SPR; set-up: species or system human; details: all three wild-type RAS proteins
# From the text: The basic nitrogen of the piperazine forms a cation–π interaction with W121. e, Oriented by the hydrogen bond to CYPA W121, RAS Y64 forms π-stacking interactions with the pyridine and indole groups. […] Data are mean ± s.d. of independent experiments (KRAS variants (green): wild-type (WT) KRAS, n = 4; KRAS(G12C), KRAS(G12D), KRAS(G12R), KRAS(G12V), KRAS(G13D), n = 6; NRAS variants (blue): NRAS(WT), NRAS(Q61L), n = 4; NRAS(Q61K), NRAS(Q61R), n = 6; HRAS variants (purple): HRAS(WT), n = 5; HRAS(G13R), n = 6; slope = 0.99, 95% confidence interval: 0.8–1.2, R^2 = 0.99; values also shown in Extended Data Tables 1–3).
# The binding affinity of compound-bound CYPA for the mutant oncogenic RAS proteins (Kd2) mentioned was assessed by SPR on a Biacore 8 K instrument. […] The SPR sensorgrams were fit using either a steady state affinity model or a 1:1 binding (kinetic) model to assess the dissociation constant (Kd) for RAS binding.
structure (smiles),measurement,setting,value
CCn1c(-c2cc(N3CCN(C4CC4)CC3)cnc2[C@H](C)OC)c2c3cc(ccc31)-c1csc(n1)C[C@H](NC(=O)[C@H]1[C@@H]3COC[C@@H]31)C(=O)N1CCC[C@H](N1)C(=O)OCC(C)(C)C2 [RMC-7977],Cellular nano-BRET of RALGDS (full-length) binding to KRAS,KRAS–RALGDS [1]; RMC-7977 4.115 nM,30.1314 and 27.6913 and 29.7303 and 27.1744
same,Cellular nano-BRET of RALGDS (full-length) binding to KRAS,KRAS–RALGDS [1]; RMC-7977 12.346 nM,22.418 and 20.7842 and 21.8208 and 20.4059 and 22.2654 and 20.6652
same,Cellular nano-BRET of RALGDS (full-length) binding to KRAS,KRAS–RALGDS [1]; RMC-7977 37.037 nM,15.6693 and 15.6351 and 15.326 and 16.1305 and 15.8324 and 15.892
same,Cellular nano-BRET of RALGDS (full-length) binding to KRAS,KRAS–RALGDS [1]; RMC-7977 111.111 nM,12.652 and 12.1384 and 12.5044 and 12.7423 and 12.6511 and 12.657
same,Cellular nano-BRET of RALGDS (full-length) binding to KRAS,KRAS–RALGDS [1]; RMC-7977 333.333 nM,11.4911 and 11.1105 and 10.9221 and 11.2754 and 11.3448 and 11.4972
same,Cellular nano-BRET of RALGDS (full-length) binding to KRAS,KRAS–RALGDS [1]; RMC-7977 1000.000 nM,11.0787 and 10.8666 and 11.0137 and 11.1587 and 10.8841 and 10.9076
same,Cellular nano-BRET of RALGDS (full-length) binding to KRAS,KRAS–RALGDS [2]; RMC-7977 4.115 nM,18.1963 and 16.034 and 17.4595 and 15.2439 and 16.9748 and 14.2583
same,Cellular nano-BRET of RALGDS (full-length) binding to KRAS,KRAS–RALGDS [2]; RMC-7977 12.346 nM,13.0313 and 11.9807 and 11.9885 and 11.6119 and 11.6125 and 11.8549
same,Cellular nano-BRET of RALGDS (full-length) binding to KRAS,KRAS–RALGDS [2]; RMC-7977 37.037 nM,11.0793 and 10.028 and 11.2271 and 10.7778 and 11.2352 and 10.211
same,Cellular nano-BRET of RALGDS (full-length) binding to KRAS,KRAS–RALGDS [2]; RMC-7977 111.111 nM,10.2935 and 10.375 and 9.345 and 10.0632 and 10.0122 and 10.2781
same,Cellular nano-BRET of RALGDS (full-length) binding to KRAS,KRAS–RALGDS [2]; RMC-7977 333.333 nM,10.1394 and 10.5924 and 9.785 and 10.0763 and 9.658 and 9.979
same,Cellular nano-BRET of RALGDS (full-length) binding to KRAS,KRAS–RALGDS [2]; RMC-7977 1000.000 nM,10.8628 and 9.92 and 10.139 and 10.0712 and 10.3509 and 9.953
same,EC50,KRAS^G12R,123 nM
same,EC50,KRAS WT,77 nM
same,EC50,KRAS^G12D,176 nM
same,Kd,NRAS^Q61L,240 nM
same,EC50,Capan-1 cells,2.2 nM
same,Cellular nano-BRET of PI3K⍺ (full-length) binding to KRAS,KRAS–PI3Kα [3]; RMC-7977 4.115 nM,19.5671 and 18.6162 and 18.8909 and 19.2958
same,Cellular nano-BRET of PI3K⍺ (full-length) binding to KRAS,KRAS–PI3Kα [3]; RMC-7977 12.346 nM,17.0686 and 16.4926 and 17.3848 and 16.3061 and 17.5986 and 16.6607
same,Cellular nano-BRET of PI3K⍺ (full-length) binding to KRAS,KRAS–PI3Kα [3]; RMC-7977 37.037 nM,14.0491 and 14.079 and 13.7071 and 13.4685 and 14.6716 and 13.9571
same,Cellular nano-BRET of PI3K⍺ (full-length) binding to KRAS,KRAS–PI3Kα [3]; RMC-7977 111.111 nM,13.3096 and 12.8133 and 13.2135 and 13.4943 and 13.3044 and 13.1946
same,Cellular nano-BRET of PI3K⍺ (full-length) binding to KRAS,KRAS–PI3Kα [3]; RMC-7977 333.333 nM,13.0302 and 13.2252 and 12.7334 and 12.2876 and 12.5409 and 12.8603
same,Cellular nano-BRET of PI3K⍺ (full-length) binding to KRAS,KRAS–PI3Kα [3]; RMC-7977 1000.000 nM,12.5669 and 12.7724 and 12.7825 and 12.8803 and 12.1527 and 13.0533
same,Cellular nano-BRET of PI3K⍺ (full-length) binding to KRAS,KRAS–PI3Kα [4]; RMC-7977 4.115 nM,18.9 and 18.4569 and 18.8341 and 18.1839 and 17.8374 and 17.916
same,Cellular nano-BRET of PI3K⍺ (full-length) binding to KRAS,KRAS–PI3Kα [4]; RMC-7977 12.346 nM,15.8416 and 16.2344 and 15.8041 and 16.4517 and 15.615 and 15.4215
same,Cellular nano-BRET of PI3K⍺ (full-length) binding to KRAS,KRAS–PI3Kα [4]; RMC-7977 37.037 nM,13.5244 and 14.2699 and 13.7436 and 13.7375 and 14.0918 and 13.7581
same,Cellular nano-BRET of PI3K⍺ (full-length) binding to KRAS,KRAS–PI3Kα [4]; RMC-7977 111.111 nM,13.3801 and 13.6296 and 13.7851 and 13.3968 and 13.4702 and 13.5585
same,Cellular nano-BRET of PI3K⍺ (full-length) binding to KRAS,KRAS–PI3Kα [4]; RMC-7977 333.333 nM,13.479 and 13.457 and 13.6054 and 13.4472 and 13.3596 and 13.441
same,Cellular nano-BRET of PI3K⍺ (full-length) binding to KRAS,KRAS–PI3Kα [4]; RMC-7977 1000.000 nM,13.0371 and 13.4964 and 13.2247 and 13.6424 and 13.499 and 13.5185
same,Cellular nano-BRET of PI3K⍺ (full-length) binding to KRAS,KRAS–PI3Kα [5]; RMC-7977 12.346 nM,15.8391 and 14.8964 and 15.0849 and 14.7399 and 14.2306 and 14.9536
same,Cellular nano-BRET of PI3K⍺ (full-length) binding to KRAS,KRAS–PI3Kα [5]; RMC-7977 37.037 nM,13.3166 and 13.8897 and 13.2531 and 13.6566 and 13.0465 and 13.0111
same,Cellular nano-BRET of PI3K⍺ (full-length) binding to KRAS,KRAS–PI3Kα [5]; RMC-7977 111.111 nM,12.9631 and 12.8542 (2×) and 12.751 and 12.7145 and 12.5362
same,Cellular nano-BRET of PI3K⍺ (full-length) binding to KRAS,KRAS–PI3Kα [5]; RMC-7977 333.333 nM,12.4418 and 12.5115 and 12.0796 and 12.2384 and 12.3217 and 12.5478
same,Cellular nano-BRET of PI3K⍺ (full-length) binding to KRAS,KRAS–PI3Kα [5]; RMC-7977 1000.000 nM,12.9103 and 12.8341 and 12.4299 and 12.848 and 12.6569 and 12.4165
same,inhibition of proliferation,"A375 cells; A375, BRAF^V600E, RAS-independent",No inhibition
same,EC50,"A375 cells; Homo sapiens, A-375, A375, CTG, (95% CI)",8830 nM
same,LC/MS bioanalysis of cells treated with RMC-7977,"[6]; AsPC-1, RMC-7977 10 nM",161.5 and 241.3 and 143.0
same,LC/MS bioanalysis of cells treated with RMC-7977,"[6]; AsPC-1, RMC-7977 100 nM",76.8 and 68.8 and 89.6
same,LC/MS bioanalysis of cells treated with RMC-7977,"[6]; AsPC-1, RMC-7977 1000 nM",50.6 and 44.9
same,Kd,RAS,~100 nM
